Results on three compounds are retold here after patent US12108762B2, “Methods of controlling crop pests using aromatic amide insect repellents, methods of making aromatic amide insect repellents, and novel aromatic amide insect repellents” (priority 2020, dated 2024).

For data set [1], the system named is Drosophila melanogaster. Nature of the data set: Habituation assay (prior exposure, then olfactory and gustatory screens). The format is in vivo. The following applies: for habituation of fruit flies, overall (olfactory and gustatory assays): post-exposure; for repellency after prior exposure, gustatory assay: prior exposure 25% by weight, gustatory screen at 5 mM. The protocol: (§1) In the gustatory assay, the consumption of sugar (from a solution in a gel) treated at varying concentrations of the present repellent compounds was compared to the consumption of control-treated sugar. For the habituation assay, flies were tested over repeated exposures to the present repellent compounds to measure changes in behavioral preference for the compounds.
Flies were continuously monitored throughout their lifetime. In this assay, 3- to 5-day-old flies (70 male and 70 female) were selected and transferred to an empty fly food container 320 (FIG. 9). The polystyrene foam cap 310 was treated with 50 μL of 25% by weight of the present aromatic amide repellent in DMSO. A thin porous material 330 was placed around the treated cap 310, with a gap between the cap 310 and the material 330 so that the flies cannot touch the treated cap 310, but can only smell it. […] After the 20-hour period, the flies were screened in the olfactory assay and gustatory assays above. In the olfactory assay, the number of flies in the trap, the number of flies outside the trap, and the number of flies that died outside the trap were counted as described herein, and in the gustatory assay, the color of the flies' abdomens were determined and counted, as described herein.
(§2) The different assays assigned results as follows. For the single-choice olfactory assay, the numbers of flies were counted according to (1) those that entered the trap, (2) those that stayed outside the trap and lived, and (3) those that died outside the trap. For the two-choice olfactory assay, the numbers of flies were counted according to (1) those that entered the control trap, (2) those that entered the trap containing the repellent, (3) those that stayed outside of both traps and lived, and (4) those that died outside the traps. For the gustatory assay, the numbers of flies were counted according to those that had (1) a red-colored abdomen, (2) a blue-colored abdomen, (3) a purple abdomen, and (4) no added color to their abdomen. A nonparametric Mann-Whitney U test was used to compare the statistical differences between assays using DEET and the same assays using one of the present repellents for all trials.

In data set [2] the test system is Drosophila melanogaster. Nature of the data set: One-choice (single-trap) olfactory trap assay. The format is in vivo. The conditions noted are these: for repellency compared with DEET, one-choice trap assay: 25 μl of 25% by weight in DMSO on filter paper, 10% ACV attractant, 6 hours (FIG. 10) and 24 hours (FIG. 13); for repellency / fly death during the 6-hour screen: 6 hours; for fly death during the 6-hour screen: starved flies. The procedure:
(§3) The D. melanogaster assays served as a model for SWD repellency. Forty different aromatic amides were studied at a 25% concentration by weight in DMSO, and the fruit fly chemosensory behaviors in response thereto were characterized. […]
(§4) Flies were monitored throughout their life cycle. Five-day-old flies (10 male and 10 females) were selected per assay, and starved for a predetermined length of time (e.g., 20 hours). After starvation, two different assays were used to study the olfactory related responses.
FIG. 7A is a diagram of a single-trap olfactory assay. Flies 105 were placed in a cylindrical chamber 100 containing a trap 110. The trap 110 was fashioned from an upturned 1.5 ml micro-centrifuge tube where the tapered end was trimmed away. A pipette tip 120 was cut to form a funnel and inserted into the bottom of the inverted micro-centrifuge tube 110. Then, filter paper 130 was placed between the pipette tip 120 and tip of micro-centrifuge tube 110. The pipette tip 120 was placed so that entering flies could not make physical contact with the filter paper 130. The filter paper 130 was placed in this manner so that when the filter paper 130 was treated with the repellent solution, the flies would only be able to smell at a distance and should be repelled even in the presence of an attractant.
A 25 μl sample of test compound at 25% concentration was applied to the filter paper 130 in order to provide the odor source. At the bottom of the trap 110, 125 μl of 10% apple cider vinegar (ACV) was placed as an attractant. Trials were conducted for 24 hours to visualize the number of flies 105 entering the trap 110. Typically, flies that entered the trap 110 contacted the liquid ACV and died in the ACV. Flies were counted and recorded at 4, 6, and 24 hours. No control other than DEET was used for this experiment, because it was a single trap, comparing the number of flies 105 repelled by the repellent versus the number of flies 105 interacting with the attractant (ACV).
as §2

The target of a further data set is T1, Or83b (Drosophila melanogaster, UniProt Q9VNB5).
T1 construct: endogenous in cells; host or cells: whole living fruit flies (behavioural olfactory assays)
T1 sequence (Q9VNB5 1-486): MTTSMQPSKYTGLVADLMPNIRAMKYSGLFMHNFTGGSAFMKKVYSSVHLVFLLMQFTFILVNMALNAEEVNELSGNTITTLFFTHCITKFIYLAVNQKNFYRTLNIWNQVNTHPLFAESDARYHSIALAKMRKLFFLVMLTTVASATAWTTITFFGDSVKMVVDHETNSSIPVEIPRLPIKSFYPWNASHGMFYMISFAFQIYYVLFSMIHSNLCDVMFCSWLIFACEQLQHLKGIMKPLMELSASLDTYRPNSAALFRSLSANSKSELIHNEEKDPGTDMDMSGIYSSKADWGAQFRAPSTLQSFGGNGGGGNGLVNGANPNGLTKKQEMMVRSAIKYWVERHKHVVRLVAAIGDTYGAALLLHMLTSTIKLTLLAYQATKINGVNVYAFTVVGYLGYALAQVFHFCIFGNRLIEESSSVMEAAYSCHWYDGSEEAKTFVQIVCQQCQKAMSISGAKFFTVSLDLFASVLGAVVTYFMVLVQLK
Nature of the data set: Olfactory assays with receptor-modified (Or83b knockdown) flies. Format: in vivo, fruit flies. The following applies: for effectiveness with receptor-modified flies, one-choice trap olfactory assay: compared with assays with unmodified flies; for Or83b and Gr33a requirement for detection of the compound: fruit flies; for Or83b and Gr33a requirement for detection of the compound / effectiveness as repellent with Or83b-modified flies above the knockdown temperature: olfactory assays; for effectiveness as repellent with Or83b-modified flies above the knockdown temperature: compared with unmodified flies. The procedure:
(§5) The neurophysiological mechanisms of repellency were analyzed using receptors that are essential for DEET detection, Or83b and Gr33a. […] These receptors also play a role in the repellency of the most promising of the present aromatic amide compounds.

Data set [3] has as its system Drosophila melanogaster. The experiment in a line: Two-choice trap olfactory assay. The format is in vivo. The following applies: for trap preference (control trap versus repellent-treated trap): DMSO control vs 25 μl of 25% by weight in DMSO. The protocol: as §3, §4
FIG. 7B is a diagram of a 2-choice trap olfactory assay. Two ACV traps 110a-b were prepared as above, in a cylinder 150 from upturned 1.5 ml micro-centrifuge tubes with the tapered end trimmed away, and a pipette 120a-b inserted into the inverted micro-centrifuge tube. In the cylinder 150, one trap 110a was treated with 25 μl of DMSO (as a control) on the filter paper 135, and the other trap 110b with the 25 μl of the 25% by weight solution of the test compound in DMSO applied to the filter paper 130. 125 μl of 10% ACV, diluted with water, was placed in the bottom of the traps 110a-b. Both traps contained filter paper as prepared in the one-trap assay. All trials were screened for 24 hours, and the number of flies 105 in each trap was counted. Positions of the traps (i.e., left or right, relative to the location of the chamber 150 in the room) were randomized. The number of flies 105 in each trap 110a and 110b were counted and recorded at 4, 6 and 24 hours.
as §2

The target of a further data set is T2, Gr33a (Drosophila melanogaster, UniProt Q9VKA5).
T2 construct: endogenous in cells; host or cells: whole living fruit flies (behavioural gustatory assay)
T2 sequence (Q9VKA5 1-475): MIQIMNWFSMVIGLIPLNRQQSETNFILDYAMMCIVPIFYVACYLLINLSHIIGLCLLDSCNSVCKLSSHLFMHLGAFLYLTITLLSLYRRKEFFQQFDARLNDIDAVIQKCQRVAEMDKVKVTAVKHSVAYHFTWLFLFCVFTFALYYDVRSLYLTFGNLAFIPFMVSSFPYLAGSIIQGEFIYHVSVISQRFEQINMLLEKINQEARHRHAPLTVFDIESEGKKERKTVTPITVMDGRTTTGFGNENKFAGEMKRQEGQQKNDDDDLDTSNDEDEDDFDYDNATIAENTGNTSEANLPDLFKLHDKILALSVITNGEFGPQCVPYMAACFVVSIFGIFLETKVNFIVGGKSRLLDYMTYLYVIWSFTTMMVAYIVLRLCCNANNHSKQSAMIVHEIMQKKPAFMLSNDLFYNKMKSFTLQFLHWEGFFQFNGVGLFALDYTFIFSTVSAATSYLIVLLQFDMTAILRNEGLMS
The experiment in a line: Gustatory assay with receptor-modified (Gr33a knockdown) flies. The format is in vivo, fruit flies. The protocol: as §5

Data set [4] concerns Drosophila melanogaster. Nature of the data set: Gustatory assay (fructose preference, food colouring). The format is in vivo. The conditions noted are these: 1 hour feeding. The protocol:
The D. melanogaster assays served as a model for SWD repellency. Forty different aromatic amides were studied at a 25% concentration by weight in DMSO, and the fruit fly chemosensory behaviors in response thereto were characterized.
as §1
Flies were continuously monitored throughout their lifecycle. In doing so, 3- to 5-day-old flies (half male and half female) were selected and starved for 20 hours. Flies were then introduced to 96-well plates 200 with wells 210a-220vv that were alternately filled with two different sugar solutions, as shown in FIG. 8. Wells 210a-210vv were filled with 25 mM fructose in DMSO (as a control), colored with red food coloring, and wells 220a-220vv were filled with […] fructose mixed with 5 mM of the present insect repellent in DMSO, colored with blue food coloring. The food coloring is nontoxic, so it has no effect on preference. Using an established protocol (Montell, C., et al., Avoiding DEET through insect gustatory receptors. NIH Neuron 67(4), 2010, 555-561: doi:10.1016/j.neuron.2010.07.006), flies selected between the fructose control or fructose mixed with aromatic amide repellent. Tests were performed on at least one group of about 50 males and at least one group of 50 females. Flies were placed in the dark for 1 hour, then the food coloring in the fly's abdomen was visualized under a compound microscope. The color of the abdomen was noted, along with the intensity, providing a quantitative idea of how much sugar each fly consumed, and from which type of well (control vs. mixed with repellent). The flies were fed for one hour so that the amount of food coloring was significant enough to be visible. A preference index was made to define the amount of food coloring consumed and assess the degree of repellent avoidance via gustatory processes.
as §2

The mark [5] stands for this setting: one-choice trap, 25% concentration.

`O=C(c1cccc(F)c1)N1CCCC1` [Compound 2mB, N-[m-fluorobenzoyl]pyrrolidine]: in the data set on Drosophila melanogaster [1], the “habituation of fruit flies, overall (olfactory and gustatory assays)” value is reported as “demonstrated habituation in at least one assay”; the “repellency after prior exposure, gustatory assay” value was “significantly less repellency”. Besides, in the data set on Drosophila melanogaster [1] (prior exposure to 25% by weight repellent for 20 hours, compared with earlier assay), the “repellency after prior exposure, one-choice trap olfactory assay” value is “worse at repelling insects after prior exposure”. Besides, the “repellency compared with DEET, one-choice trap assay” value with Drosophila melanogaster [2] is “more effective than DEET”. In the data set with Drosophila melanogaster [2] (setting [5]), the “aversion (no flies entering the single-choice trap)” value turned out to be 100%, the “ranking among repellents in the one-choice assay” value is “most effective repellents”, the repellency entry is “significant repellency” and the “fly death during the 6-hour screen” value is on record as “no fly death”. In addition, at Or83b, the “effectiveness with receptor-modified flies, one-choice trap olfactory assay” value is “significantly less effective”; the “Or83b and Gr33a requirement for detection of the compound” value is on record as “required”; the “effectiveness as repellent with Or83b-modified flies above the knockdown temperature” value was “significantly less effective”; the “preference of receptor-modified flies for the compound, olfactory assays” value is “much higher preference”. Further, in the data set on Drosophila melanogaster [3] (25% by weight, 20 flies per assay, 6 hours), the “average number of flies that chose a trap in 6 hours” value is on record as 4 flies. In addition, the “participation in choosing either trap” value with Drosophila melanogaster [3] (25% by weight, 6 hours) was “less overall participation”. In addition, in the data set on Drosophila melanogaster [3] (6 hours), the “trap preference (control trap versus repellent-treated trap)” value is listed as “preference for the control trap”. Also, at Gr33a (compared with unmodified flies), the “effectiveness with receptor-modified flies, gustatory assay” value is “significantly less effective”. Moreover, on Gr33a, the “preference for repellent-treated food source post-knockdown, gustatory assay” value is recorded as “increased preference”.
Regarding `CN1CCN(C(=O)c2ccccc2F)CC1` [Compound 2oE, 1-methyl-4-[o-fluorobenzoyl]piperazine], in the data set on Drosophila melanogaster [1], the “habituation of fruit flies, overall (olfactory and gustatory assays)” value is recorded as “unable to habituate”; the “repellency after prior exposure, gustatory assay” value is listed as “statistically similar results”. In the data set with Drosophila melanogaster [2], the “repellency compared with DEET, one-choice trap assay” value is listed as “more effective than DEET”. Further, in the data set with Drosophila melanogaster [2] (setting [5]), the “ranking among repellents in the one-choice assay” value was “most effective repellents” and the “fly death during the 6-hour screen” value is on record as “some fly death”. The fly mortality result in the data set on Drosophila melanogaster [2] (one-choice trap, 25% concentration, exposure in the gas phase) is given as “relatively insignificant”. Moreover, on Or83b, the “effectiveness with receptor-modified flies, one-choice trap olfactory assay” value is given as “less effective, but statistically similar”; the “Or83b and Gr33a requirement for detection of the compound” value is reported as “required”; the “effectiveness as repellent with Or83b-modified flies above the knockdown temperature” value is recorded as “significantly less effective”; the “preference of receptor-modified flies for the compound, olfactory assays” value is reported as “much higher preference”. In the data set on Drosophila melanogaster [3] (25% by weight, 6 hours), the “participation in choosing either trap” value is “less overall participation”. Also, the “interaction with control trap in comparison with repellent-treated trap” value with Drosophila melanogaster [3] (25% by weight, low participation) was “more flies interacted with the control trap”. The “trap preference (control trap versus repellent-treated trap)” value in the data set on Drosophila melanogaster [3] (6 hours) is given as “preference for the control trap”. Moreover, at Gr33a, the “preference for repellent-treated food source post-knockdown, gustatory assay” value was “increased preference”.
On to `O=C(c1cccc(C(F)(F)F)c1)N1CCCCC1` [Compound 3mC], for which the “repellency compared with DEET, one-choice trap assay” value with Drosophila melanogaster [2] is recorded as “more effective than DEET”. Further, in the data set with Drosophila melanogaster [2] (setting [5]), the repellency entry is “significant repellency” and the “fly death during the 6-hour screen” value is on record as “no fly death”. Besides, the “gustatory repellency compared with DEET” value in the data set with Drosophila melanogaster [4] (5 mM repellent, FIG. 12) is “significantly worse than DEET”. Besides, the “gustatory repellency (preference for repellent-treated sugar versus control-treated sugar)” value with Drosophila melanogaster [4] (35 mM fructose with 5 mM repellent vs 25 mM fructose control) is “act as a gustatory repellent”. Moreover, the “participation in choosing either trap” value in the data set with Drosophila melanogaster [3] (25% by weight, 6 hours) is on record as “less overall participation”. Also, the “trap preference (control trap versus repellent-treated trap)” value with Drosophila melanogaster [3] (6 hours) is recorded as “preference for the control trap”.
